Experimental data from patent US20060281110A1, “Methods to identify antimicrobial compounds that interrupt ribosome biogenesis” (MICHIGAN STATE UNIVERSITY, priority 2005, published 2006).

Key:
45S intermediate = assay: In vitro association of YlqF-His6 with ribosomal particles (sucrose gradient, Western blot); format: binding, B. subtilis; conditions: incubated 10 minutes at 37° C.; 10-25% sucrose gradient; FIG. 16
Description: (§1) The data was collected from 12% SDS-PAGE electrophoresis and blotted to a nylon membrane using standard Western Blot analysis. Incubations using rabbit polyclonal YlqF antibody was followed by horseradish peroxidase-conjugated goat anti-rabbit antibody and Western Lightning® (PerkinElmer) chemiluminescent detection. Purified YlqF-His6 was added as a comparative marker.
(§2) A B. subtilis strain was constructed that expresses a YlqF-His6 fusion protein as the only functional YlqF copy in the cell. […] The YlqF-His6 fusion protein was purified and tested for association with purified 45S intermediates and mature 50S subunits. YlqF-His6 and either the 45S intermediate or 50S subunits were mixed and incubated for 10 minutes at 37° C. The mixtures were then fractionated on 10-25% sucrose gradients and individual fractions corresponding to the 45S and 50S peaks were collected. […] Although it is not necessary to understand the mechanism of an invention, it is believed that YlqF functions as a factor involved in the biogenesis of the 50S subunit.

50S subunit = conditions: incubated 10 minutes at 37° C.; 10-25% sucrose gradient; FIG. 16
Description: as §1, §2

In the case of “YlqF-His6: purified His6 fusion to the C-terminus of B. subtilis GTPase YlqF”, the “binding to 45S intermediate” value (45S intermediate) is reported as “able to bind the 45S intermediate” and the “binding to mature 50S subunit” value (50S subunit) is reported as “not the 50S subunit”.
